Measured values: US20250025454A1 (priority 2021, published 2025)
Converted amounts (≈) assume the structure as drawn. “And” between values parts separate entries of the source, which are not always exact repeats. Equal values may be shown once. “Also recorded” adds a separate entry of the source. Read-outs that look alike come from different tables or passages of the source.

Key:
[1] = Pharmacokinetics (plasma, lung at 24 h) after single oral dosing in male Sprague-Dawley rats; settings: male, Sprague-Dawley, rat, plasma, po
[2] = Scripps ReFrame database; cited from earlier work
SARS-CoV-2/WA1 = assay type: cell-based
in vivo = settings: female, 129/S, mouse
[3] = female, 129/S, mouse, in vivo
[4] = Pharmacokinetics (plasma and lung tissue) after single and 5-day repeat oral dosing in female 129S1 mice; settings: for adverse reactions / tolerability: female 129S1 mice, PO 50 and 250 mg/kg up to 5 days; for Kp: Lung/Plasma AUC ratio; for AUC(0-t): AUClast ± SE; for MRT last at 5 day / MRT last: MRTlast; for Kp at 24 h: L/P Ratio, non-infected mice, 250 mg/kg QD oral
SARS-CoV-2 = settings: Scripps ReFrame database; cited from earlier work
[5] = female, 129S1, mouse, in vivo, 250 mg/kg
[6] = female, 129S1, mouse, in vivo, po, 50 mg/kg
[7] = female, 129S1, mouse, in vivo, po, 50 mg/kg, plasma, 50 mg/kg PO multiple, 5-day, dose
[8] = female, 129S1, mouse, in vivo, po, 50 mg/kg, plasma, 50 mg/kg PO single dose
[9] = female, 129S1, mouse, in vivo, po, 250 mg/kg
[10] = female, 129S1, mouse, in vivo, po, 250 mg/kg, plasma, 250 mg/kg PO multiple, 5-day, dose
[11] = female, 129S1, mouse, in vivo, po, 250 mg/kg, plasma, 250 mg/kg PO single dose
[12] = female, 129S1, mouse, in vivo, po, 250 mg/kg, lung, 250 mg/kg PO multiple, 5-day, dose

Cc1c(-c2ccc(O)cc2)n(Cc2ccc(OCCN3CCCCC3)cc2)c2ccc(O)cc12 [Pipendoxifene, 2-(4-hydroxyphenyl)-3-methyl-1-[[4-(2-piperidin-1-ylethoxy)phenyl]methyl]indol-5-ol]
concentration at 6 h ([1]; 500 mg/kg, Plasma concentration, male SD rat, single oral 500 mg/kg (Group 2), 6 hr, individual rats 453, 454, 455): 428 ng/mL | concentration at 8 h ([1]; 500 mg/kg, Plasma concentration, male SD rat, single oral 500 mg/kg (Group 2), individual rats 453, 454, 455): 561 ng/mL | concentration at 6 h ([1]; 750 mg/kg, Plasma concentration, male SD rat, single oral 750 mg/kg (Group 3), 6 hr, individual rats 456, 457, 458): 381 ng/mL | concentration at 8 h ([1]; 750 mg/kg, Plasma concentration, male SD rat, single oral 750 mg/kg (Group 3), individual rats 456, 457, 458): 497 ng/mL | AUC(0-t) ([1]; 1000 mg/kg, AUClast, male SD rat plasma, single oral 1000 mg/kg (Group 4), one outlier excluded, individual rats 459, 460, 461): 7440 ng·h/mL | AUC(0-inf) ([1]; 1000 mg/kg, AUC∞, male SD rat plasma, single oral 1000 mg/kg (Group 4), one outlier excluded, individual rats 459, 460): 5880 ng·h/mL | Cmax ([1]; 1000 mg/kg, Cmax, male SD rat plasma, single oral 1000 mg/kg (Group 4), one outlier excluded, individual rats 459, 460, 461): 365 ng/mL | concentration at 6 h ([1]; 1000 mg/kg, Plasma concentration, male SD rat, single oral 1000 mg/kg (Group 4), all data included, 6 hr, individual rats 459, 460, 461): 365 ng/mL | concentration at 4 hr ([1]; 1000 mg/kg, Plasma concentration, male SD rat, single oral 1000 mg/kg (Group 4), one outlier excluded, 4 hr, mean): 381 ng/mL | concentration at 6 hr ([1]; 1000 mg/kg, Plasma concentration, male SD rat, single oral 1000 mg/kg (Group 4), one outlier excluded, 6 hr, individual rats 459, 460, 461): 365 ng/mL | activity in HTS [2]: INACTIVE | IC50 expressed as mass concentration (SARS-CoV-2/WA1): 0.328 µg/mL (≈ 0.718 µM) | Kp (in vivo; C24 h lung concentrations relative to plasma concentrations (higher)): 3 to 4 | Kp (in vivo; po, 250 mg/kg, L/P Ratio): 4.04 | Kp (in vivo; po, L/P Ratio): 4.03 | C24h plasma concentration ([3]; 125 mg/kg): 290 ng/mL | C24h plasma concentration ([3]; 250 mg/kg): 194 ng/mL | Lung concentration ([3]; po, 250 mg/kg): 784 ng/mL | Plasma concentration ([3]; po, 250 mg/kg): 194 ng/mL | Lung Cmax over SARS-CoV-2 IC50 ([4]; 50 mg/kg): 17 fold | Mean plasma concentration ([4]; 50 mg/kg PO single dose, 1.0 hr): 89.1 ng/mL | Lung Cmax over SARS-CoV-2 IC50 ([4]; 250 mg/kg): 121 fold | Mean plasma concentration ([4]; 250 mg/kg PO single dose, 0.5 hr): 88.8 ng/mL | adverse reactions / tolerability [4]: no adverse events | adverse reactions / tolerability ([4]; listed as MDL-001): well tolerated with no adverse clinical signs; also recorded: No adverse reactions were observed | adverse reactions / tolerability ([4]; listed as pipendoxifene): No adverse reactions were observed | concentration at 8 hr ([4]; female, 129S1, mouse, in vivo, 50 mg/kg): 7840 ng/g | Kp ([4]; female, 129S1, mouse, in vivo, 50 mg/kg, Day 1, 50 mg/kg): 65 | Kp ([4]; female, 129S1, mouse, in vivo, 50 mg/kg, Day 5, 50 mg/kg): 56 | concentration at 8 h [4, 5]: 575 ± 194 ng/mL | concentration at 8 hr [4, 5]: 121 ng/mL | half-life [4, 5]: 2.36 to 3.96 h | Kp ([4]; female, 129S1, mouse, in vivo, 250 mg/kg, Day 1, 250 mg/kg): 36 | Kp ([4]; female, 129S1, mouse, in vivo, 250 mg/kg, Day 5, 250 mg/kg): 44 | Cmax [4, 6]: 179 ng/mL and 8310 ng/g | Cmax at 5 day [4, 6]: 5610 ± 925 ng/g | half-life [4, 6]: 2.36 h | half-life at 5 day [4, 6]: 2.58 h | AUC(0-t) [4, 7]: 1390 ± 55 ng·h/mL | AUC(0-t) [4, 8]: 1600 ± 115 ng·h/mL | AUC(0-inf) [4, 7]: 1400 ng·h/mL | AUC(0-inf) [4, 8]: 1600 ng·h/mL | MRT last at 5 day [4, 7]: 7.1 h | MRT last [4, 8]: 6.95 h | Tmax at 5 day ([4]; female, 129S1, mouse, in vivo, po, 50 mg/kg, lung, 50 mg/kg PO multiple, 5-day, dose): 8 h | Tmax ([4]; female, 129S1, mouse, in vivo, po, 50 mg/kg, lung, 50 mg/kg PO single dose): 4 h | Tmax [4, 8]: 2 h | Cmax [4, 9]: 1020 ng/mL and 24700 ng/g | Cmax at 5 day [4, 9]: 39000 ± 8840 ng/g | half-life [4, 9]: 3.96 h | half-life at 5 day [4, 9]: 2.52 h | AUC(0-t) [4, 10]: 11600 ± 1190 ng·h/mL | AUC(0-inf) [4, 10]: 11700 ng·h/mL | AUC(0-inf) [4, 11]: 10500 ng·h/mL | Kp at 24 h ([4]; female, 129S1, mouse, in vivo, po, 250 mg/kg, Day 1): 114 | Kp at 24 h ([4]; female, 129S1, mouse, in vivo, po, 250 mg/kg, Day 5): 177 | MRT last at 5 day [4, 12]: 7.22 h | MRT last [4, 11]: 8.86 h | Tmax at 5 day [4, 12]: 4 h | Tmax ([4]; female, 129S1, mouse, in vivo, po, 250 mg/kg, lung, 250 mg/kg PO single dose): 8 h | concentration at 8 h ([4]; female, 129S1, mouse, lung, oral, 50 mg/kg, Mean lung tissue concentration, 50 mg/kg PO multiple, 5-day, dose, 8.0 hr): 5610 ± 1600 ng/g | concentration at 1 hr ([4]; female, 129S1, mouse, plasma, oral, 50 mg/kg, Mean plasma concentration, 50 mg/kg PO single dose, 1.0 hr): 89.1 ± 71.2 ng/mL | concentration at 4 h ([4]; female, 129S1, mouse, plasma, oral, 50 mg/kg, Mean plasma concentration, 50 mg/kg PO single dose, 4.0 hr): 107 ± 23 ng/mL | concentration at 2 hr ([4]; female, 129S1, mouse, plasma, oral, 50 mg/kg, Plasma Conc., individual mouse, 50 mg/kg PO multiple, 5-day, dose, 2.0 hr): 113 ng/mL | concentration at 6 hr ([4]; female, 129S1, mouse, plasma, oral, 50 mg/kg, Plasma Conc., individual mouse, 50 mg/kg PO multiple, 5-day, dose, 6.0 hr): 163 ng/mL | concentration at 8 hr ([4]; female, 129S1, mouse, plasma, oral, 50 mg/kg, Plasma Conc., individual mouse, 50 mg/kg PO single dose, 8.0 hr): 113 ng/mL | concentration at 0.5 h ([4]; female, 129S1, mouse, plasma, oral, 250 mg/kg, Mean plasma concentration, 250 mg/kg PO single dose, 0.5 hr): 88.8 ± 14.1 ng/mL | concentration at 4 hr ([4]; female, 129S1, mouse, plasma, oral, 250 mg/kg, Plasma Conc., individual mouse, 250 mg/kg PO multiple, 5-day, dose, 4.0 hr): 497 ng/mL | activity in HTS (SARS-CoV-2): INACTIVE
